Laboratory results published in PMC5767327, “Tonically Active α2 Subunit-Containing Glycine Receptors Regulate the Excitability of Striatal Medium Spiny Neurons” (Frontiers in Molecular Neuroscience, 2018).

Target: T1, GlyR α2 (native α2 subunit-containing glycine receptors of striatal medium spiny neurons) (Mus musculus, UniProt Q7TNC8)
T1 construct: gene Glra2; native full-length receptor in adult dorsal striatal slices; α2 homomer or α2β heteromer (Glrb) not resolved by authors; no glycine current in Glra2 knockout MSNs
T1 sequence (Q7TNC8 28-452): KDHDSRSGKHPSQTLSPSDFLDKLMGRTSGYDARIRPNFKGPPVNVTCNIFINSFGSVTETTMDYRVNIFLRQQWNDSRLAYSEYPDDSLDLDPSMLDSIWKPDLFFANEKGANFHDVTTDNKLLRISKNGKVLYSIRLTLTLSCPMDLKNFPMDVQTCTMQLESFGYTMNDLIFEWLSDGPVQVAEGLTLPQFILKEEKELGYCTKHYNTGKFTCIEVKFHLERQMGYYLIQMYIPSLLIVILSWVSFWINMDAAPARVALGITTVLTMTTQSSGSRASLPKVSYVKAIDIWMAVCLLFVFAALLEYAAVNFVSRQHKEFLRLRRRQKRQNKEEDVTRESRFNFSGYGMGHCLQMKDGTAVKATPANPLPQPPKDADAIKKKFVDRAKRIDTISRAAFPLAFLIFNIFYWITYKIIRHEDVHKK
Assay: whole-cell patch clamp, evoked chloride current, fast perfusion, Hill fit
Assay type: cell-based
Settings: read-out: STP MSNs (n = 6); agonist; STP MSNs (Drd2-EGFP) in acute striatal slices, native receptor; -80 mV, 32°C; with gabazine, CNQX, DHβE, L-689,560, TTX; authors call it a higher boundary (diffusion in slice)
From the text: whole-cell patch clamp, evoked chloride current, fast perfusion, Hill fit on GlyR α2 (native α2 subunit-containing glycine receptors of striatal medium spiny neurons)

NCC(=O)O [glycine]
EC50: 317 ± 25.4 µM
